# Where two headings read alike, the source gives them in different places.
# Columns and labels:
# [1] = Thermodynamic solubility assay (PBS pH 6.5; isopropyl myristate); format: physicochemical; settings: thermodynamic from solid
# Description: Thermodynamic Solubility Assay
# Weigh not less than 2 mg of the sample powder into a Whatman Mini-UniPrep vial. If it is required to test the thermodynamic solubility of samples in multiple buffers, a separate vial is needed for each test; add 450 μL of buffer to each Whatman Mini-UniPrep vial, respectively; after that, install the piston cap of Whatman Mini-UniPrep and press it above the liquid level, so that the filter is in contact with the buffer during shaking; shake the solubility sample by vortexing for 1 minute.
# Inject 3 UV standard solutions from low to high concentrations into the HPLC, then inject the diluent and supernatant of the test compound, with two replicates of test sample; and integrate the UV peaks. Simulate a standard curve and calculate the thermodynamic solubility of the sample.
# [2] = Log D measurement (n-octanol/PBS shake, LC-MS/MS); format: physicochemical; settings: pH 7.4, read-out: LogD7.4 (Oct/buff)
# Description: Two replicates of test compounds (DMSO stock solution 10 mM, 2 μL/well) and QCs (DMSO 10 mM, 2 μL/well) were transferred from the storage tube to a 96-well cluster tube. Add buffer-saturated n-octanol ([…]) and n-octanol-saturated PBS (149 μL/well) to each well; vortex mix the cluster tube for 1 minute, mix by shaking on a plate shaker at 880 rpm for one hour, and then centrifuge at 4000 rpm for 10 minutes. Remove the cover pad, accurately measure a certain amount of n-octanol layer samples (4 μL/well) into a 96-well plate containing n-octanol internal standard diluent (796 μL/well); accurately measure a certain amount of buffer salt layer samples (30 μL/well) into a 96-well plate containing buffer internal standard diluent (570 μL/well); the dilution factor of the sample can be adjusted according to different properties of the sample. Samples were analyzed using a triple quadrupole mass spectrometer. The processed sample solution was analyzed by the fast isocratic elution and small column retention method, the concentration correction was carried out by dilution factor and internal standard, and the ratio of the corrected peak area was used to calculate the final result (Log D/Log P value).
# [3] = aqueous buffer, PBS buffer pH 6.5, about 25° C., read-out: Thermodynamic Solubility pH = 6.5
# [4] = oil or lipid, isopropyl myristate as vehicle, about 25° C., read-out: Thermodynamic Solubility in Isopropyl Myristate
Structure (SMILES),"solubility thermodynamic at 24 h [1, 3]","solubility thermodynamic at 24 h [1, 4]",logD [2]
CCC(=O)OCCN(C)C(=O)n1ccc2c(N(C)[C@H]3CN(C(=O)CC#N)CC[C@H]3C)ncnc21 [Compound A20],2430 µg/mL,779 µg/mL,0.97
C[C@@H]1CCN(C(=O)CC#N)C[C@@H]1N(C)c1ncnc2c1ccn2C(=O)N(C)CCOC(=O)C1CCC1 [Compound A4],486 µg/mL,1250 µg/mL,2.35
C[C@@H]1CCN(C(=O)CC#N)C[C@@H]1N(C)c1ncnc2c1ccn2C(=O)N(C)CCOC(=O)C1CCOC1 (stereo partly drawn) [Compound A8],2940 µg/mL,208 µg/mL,0.56
C[C@@H]1CCN(C(=O)CC#N)C[C@@H]1N(C)c1ncnc2c1ccn2C(=O)N(C)CCOC(=O)C1CCC(F)(F)CC1 [Compound A2],240 µg/mL,1020 µg/mL,1.86
C[C@@H]1CCN(C(=O)CC#N)C[C@@H]1N(C)c1ncnc2c1ccn2C(=O)N(C)CCOC(=O)C1CCCC1 [Compound A6],300 µg/mL,1530 µg/mL,1.95
C[C@@H]1CCN(C(=O)CC#N)C[C@@H]1N(C)c1ncnc2c1ccn2C(=O)N(C)CCOC(=O)C1CC(F)(F)C1 [Compound A1],645 µg/mL,878 µg/mL,1.45

# Source: US20250188088A1, “COMPOUND AND USE THEREOF” (ONQUALITY PHARMACEUTICALS CHINA LTD., priority 2022, published 2025)
